Source: patent US20240058344A1, “METHODS OF TREATING NEURODEGENERATIVE DISORDERS AND STAT3-LINKED CANCERS USING SUPPRESSORS OF ELECTRON LEAK” (Cornell University, priority 2020, published 2024)

Test system: A-172 glioblastoma cells
Assay: Glioblastoma cell proliferation, CellTiter-Glo luciferase assay, A-172
Assay type: cell-based, human
Conditions: 0-50 μM, 72 and 96 h
Procedure: Relative cell density was measured using the CellTiter-Glo luciferase assay. n=3 wells per condition. *p<0.05, **p<0.01, ***p<0.001 vs. 0 μM, one-way ANOVA with Dunnett's multiple comparisons test.
The effect of S3QELs on proliferation of glial tumor cells that have different oncogenic mutations was assessed. In particular, proliferation rates were assessed in three different human immortalized glioblastoma cells lines (A-172, T98G, and U-87 MG). A-172 and U-87 lines have mutations in PTEN, a phosphatase that indirectly regulates PI3K activities, whereas T98G cell line has a mutation in p53, a well-known tumor suppressor gene. STAT3 can affect PI3K signaling and p53 transcription and could thereby promote glioblastoma cell proliferation. Whether S3QELs reduce glioblastoma cell proliferation and aberrant intracellular signaling was tested.
Briefly, two complementary methods were used to assess cell proliferation, including the CellTiter-Glo assay and DAPI staining of cell nuclei. The effects of S3QEL2 treatment on A-172, T98G, and U-87 MG cells were measured at different drug concentrations (0, 6, 20, 30, 40, or 50 μM) and time-points after treatment (72 or 96 hours). S3QEL2 inhibits proliferation of A-172 and T98G glioblastoma cells in a highly dose-dependent manner and these effects are similar at different time-points (FIG. 15A-B).

## CCCN(CCC)c1ncnc2c1cnn2-c1ccc(C)c(C)c1 [S3QEL2]
  Cell proliferation (relative cell density, CellTiter-Glo): dose-dependently inhibited cell proliferation
